According to patent US10934273B2, “Crystalline forms of 4-(2-((1R,2R)-2-hydroxycyclohexylamino)benzothiazol-6-yloxy)-N-methylpicolinamide” (Novartis AG, priority 2016, dated 2021):
Counter-ions that a name gives are not always drawn. Like-named read-outs stand apart in the source and are kept apart here.

What was measured:
Assay type in all cases: physicochemical
Aqueous solubility = conditions: aqueous medium, aqueous buffer
Experimental: (§1) The crystalline di-hydrochloride monohydrate salt of 4-(2-((1R,2R)-2-hydroxycyclohexylamino)benzothiazol-6-yloxy)-N-methylpicolinamide (Form A) exists primarily as a crystalline material. Form A is hygroscopic, having a maximum water uptake of about 10.79% at 25° C. and up to 95% relative humidity (RH)). […] Form A has a very low aqueous solubility at neutral pH (about 0.006 mg/mL), however it has a high aqueous solubility at low pH (about >20 mg/mL).

[1] = Intrinsic dissolution rate; conditions: pH 4.5; Form A versus Form B
[2] = Hygroscopicity (water uptake / exposure to humidity)
Experimental: as §1

[3] = Bulk physical and chemical stability (degradation under stress conditions)
Text: Five hydrated forms of the di-hydrochloride salt were identified, which included the crystalline di-hydrochloride monohydrate salt of 4-(2-((1R,2R)-2-hydroxycyclohexylamino)benzothiazol-6-yloxy)-N-methylpicolinamide (Form A) discussed herein.

solubility (Aqueous solubility; low pH, read-out: aqueous solubility at low pH): > 20000 µg/mL
solubility (Aqueous solubility; neutral pH, read-out: aqueous solubility at neutral pH): ~6 µg/mL
intrinsic dissolution rate relative to mono-hydrochloride salt (Form B) [1]: about 150 fold
maximum water uptake ([2]; 25° C., up to 95% relative humidity (RH)): about 10.79%
phase change on exposure to humidity ([2]; exposure to humidity): little to no phase change
thermodynamic stability compared to the other four hydrated forms ([3]; ambient conditions): more thermodynamically stable hydrate
degradation of bulk drug substance ([3]; one to two weeks at 50° C., 75% relative humidity): less than 1%
degradation of bulk drug substance ([3]; one to two weeks at 50° C., ambient relative humidity): less than 1%
degradation of bulk drug substance ([3]; one week at 80° C., ambient relative humidity): less than 1%
SMILES: CNC(=O)c1cc(Oc2ccc3nc(N[C@@H]4CCCC[C@H]4O)sc3c2)ccn1 [Form A, Di-Hydrochloride Monohydrate Salt of 4-(2-((1R,2R)-2-hydroxycyclohexylamino)benzothiazol-6-yloxy)-N-methylpicolinamide]
